Experimental data from ChEMBL document CHEMBL4392867, “Asperunguisins A-F, Cytotoxic Asperane Sesterterpenoids from the Endolichenic Fungus Aspergillus unguis” (J Nat Prod, 2019).
Structures can show the parent of a compound that is named as a salt. The source made the active and inactive calls. The calls are words filed in the database; no cut-off is given here.

Legend:
U-251 [1] = test: Cytotoxicity in human U251 cells assessed as reduction in cell viability at 40 uM incubated for 48 hrs by MTT assay; assay type: functional, cell-based
SMMC-7721 [2] = test: Cytotoxicity in human SMMC7721 cells assessed as reduction in cell viability at 40 uM incubated for 48 hrs by MTT assay; assay type: functional, cell-based
A549 [3] = test: Cytotoxicity in human A549 cells assessed as reduction in cell viability at 40 uM incubated for 48 hrs by MTT assay; assay type: functional, cell-based
HepG2 [4] = test: Cytotoxicity in human HepG2 cells assessed as reduction in cell viability at 40 uM incubated for 48 hrs by MTT assay; assay type: functional, cell-based
U-87 MG [5] = test: Cytotoxicity in human U87 cells assessed as reduction in cell viability at 40 uM incubated for 48 hrs by MTT assay; assay type: functional, cell-based; conditions: U-87MG ATCC
HT-29 [6] = test: Cytotoxicity in human HT-29 cells assessed as reduction in cell viability at 40 uM incubated for 48 hrs by MTT assay; assay type: functional, cell-based
U-87 MG [7] = test: Cytotoxicity in human U87 cells assessed as reduction in cell viability incubated for 48 hrs by MTT assay; assay type: functional, cell-based, U-87MG ATCC
U-251 [8] = test: Cytotoxicity in human U251 cells assessed as reduction in cell viability incubated for 48 hrs by MTT assay; assay type: functional, cell-based; conditions: U-251, 48 h
A549 [9] = test: Cytotoxicity in human A549 cells assessed as reduction in cell viability incubated for 48 hrs by MTT assay; assay type: functional, cell-based; conditions: A549, 48 h
HepG2 [10] = test: Cytotoxicity in human HepG2 cells assessed as reduction in cell viability incubated for 48 hrs by MTT assay; assay type: functional, cell-based; conditions: HepG2, 48 h
HT-29 [11] = test: Cytotoxicity in human HT-29 cells assessed as reduction in cell viability incubated for 48 hrs by MTT assay; assay type: functional, cell-based; conditions: HT-29, 48 h
SMMC-7721 [12] = test: Cytotoxicity in human SMMC7721 cells assessed as reduction in cell viability incubated for 48 hrs by MTT assay; assay type: functional, cell-based; conditions: SMMC-7721, 48 h
A549 [13] = test: Cytotoxicity in human A549 cells assessed as reduction in cell viability incubated for 48 hrs in presence of pan-caspase inhibitor Z-VAD-fmk by MTT assay; assay type: functional, cell-based
A549 [14] = test: Induction of apoptosis in human A549 cells assessed as early apoptotic cells level at 20 uM incubated for 24 hrs by Annexin V-FITC and propidium iodide staining based flow cytometry (reference value: 1.81%); assay type: functional
A549 [15] = test: Induction of cell cycle arrest in human A549 cells assessed as accumulation at G1 phase at 15 uM incubated for 24 hrs by propidium iodide staining based flow cytometry (reference value: 66.99%); assay type: functional
A549 [16] = test: Induction of cell cycle arrest in human A549 cells assessed as accumulation at S phase at 20 uM incubated for 24 hrs by propidium iodide staining based flow cytometry (reference value: 19.47%); assay type: functional
A549 [17] = test: Induction of cell cycle arrest in human A549 cells assessed as accumulation at G2 phase at 10 uM incubated for 24 hrs by propidium iodide staining based flow cytometry (reference value: 13.54%); assay type: functional
A549 [18] = test: Induction of cell cycle arrest in human A549 cells assessed as accumulation at G1 phase incubated for 24 hrs by propidium iodide staining based flow cytometry; assay type: functional
A549 [19] = test: Induction of apoptosis in human A549 cells assessed as early apoptotic cells level at 10 uM incubated for 24 hrs by Annexin V-FITC and propidium iodide staining based flow cytometry (reference value: 1.81%); assay type: functional
A549 [20] = test: Induction of cell cycle arrest in human A549 cells assessed as accumulation at S phase at 10 uM incubated for 24 hrs by propidium iodide staining based flow cytometry (reference value: 19.47%); assay type: functional
A549 [21] = test: Induction of apoptosis in human A549 cells assessed as necrotic cells level at 20 uM incubated for 24 hrs by Annexin V-FITC and propidium iodide staining based flow cytometry (reference value: 3.23%); assay type: functional
A549 [22] = test: Induction of apoptosis in human A549 cells assessed as late apoptotic cells level at 20 uM incubated for 24 hrs by Annexin V-FITC and propidium iodide staining based flow cytometry (reference value: 4.14%); assay type: functional
A549 [23] = test: Induction of cell cycle arrest in human A549 cells assessed as accumulation at G2 phase at 15 uM incubated for 24 hrs by propidium iodide staining based flow cytometry (reference value: 13.54%); assay type: functional
A549 [24] = test: Induction of cell cycle arrest in human A549 cells assessed as accumulation at G2 phase at 20 uM incubated for 24 hrs by propidium iodide staining based flow cytometry (reference value: 13.54%); assay type: functional
A549 [25] = test: Induction of apoptosis in human A549 cells assessed as necrotic cells level at 10 uM incubated for 24 hrs by Annexin V-FITC and propidium iodide staining based flow cytometry (reference value: 3.23%); assay type: functional
A549 [26] = test: Induction of cell cycle arrest in human A549 cells assessed as accumulation at S phase at 15 uM incubated for 24 hrs by propidium iodide staining based flow cytometry (reference value: 19.47%); assay type: functional
A549 [27] = test: Induction of apoptosis in human A549 cells assessed as early apoptotic cells level at 15 uM incubated for 24 hrs by Annexin V-FITC and propidium iodide staining based flow cytometry (reference value: 1.81%); assay type: functional
A549 [28] = test: Induction of cell cycle arrest in human A549 cells assessed as accumulation at G1 phase at 20 uM incubated for 24 hrs by propidium iodide staining based flow cytometry (reference value: 66.99%); assay type: functional
A549 [29] = test: Induction of apoptosis in human A549 cells assessed as late apoptotic cells level at 10 uM incubated for 24 hrs by Annexin V-FITC and propidium iodide staining based flow cytometry (reference value: 4.14%); assay type: functional
A549 [30] = test: Induction of apoptosis in human A549 cells assessed as late apoptotic cells level at 15 uM incubated for 24 hrs by Annexin V-FITC and propidium iodide staining based flow cytometry (reference value: 4.14%); assay type: functional
A549 [31] = test: Induction of DNA damage in human A549 cells assessed as increase in expression of gamma-H2AX protein expression by Western blot analysis; assay type: functional, cell-based
A549 [32] = test: Induction of cell cycle arrest in human A549 cells assessed as accumulation at G1 phase at 10 uM incubated for 24 hrs by propidium iodide staining based flow cytometry (reference value: 66.99%); assay type: functional
A549 [33] = test: Induction of apoptosis in human A549 cells assessed as necrotic cells level at 15 uM incubated for 24 hrs by Annexin V-FITC and propidium iodide staining based flow cytometry (reference value: 3.23%); assay type: functional

For CC(C)[C@@H]1CC[C@]2(C)C1=CC[C@]1(C)[C@H]3CC[C@]4(C)O[C@@H]4[C@@H](O)[C@]3(C)[C@@H](O)C[C@H]12, the Activity (U-251 [1]) was “inactive”, the Activity (SMMC-7721 [2]) was “inactive” and the Activity (A549 [3]) was “inactive”. The Activity (HepG2 [4]) was “inactive”, the Activity (U-87 MG [5]) was “inactive” and the Activity (HT-29 [6]) was “inactive”.
Compound COc1cccc2c1C(=O)c1c(O)c3c(c(O)c1C2=O)C[C@@](O)(C(=O)CO)C[C@@H]3O[C@H]1C[C@H](N)[C@H](O)[C@H](C)O1 [DOXORUBICIN HYDROCHLORIDE] has an IC50 (U-87 MG [7]) of 1.1 µM and an IC50 (U-251 [8]) of 2.9 µM.
CC1=C[C@@H](O)[C@@]2(C)[C@H](CC1)[C@@]1(C)CC=C3[C@H](C(C)C)CC[C@@]3(C)[C@@H]1C[C@@H]2O showed an IC50 (U-87 MG [7]) of over 40 µM, an IC50 (A549 [9]) of over 40 µM and an IC50 (HepG2 [10]) of over 40 µM. For the same compound, the IC50 (HT-29 [11]) was 24.2 µM, the IC50 (SMMC-7721 [12]) was over 40 µM and the IC50 (U-251 [8]) was over 40 µM.
In the case of C=C1CC[C@@H]2[C@@]3(C)CC=C4[C@H](C(C)C)CC[C@@]4(C)[C@@H]3C[C@H](O)[C@@]2(C)[C@H](O)[C@H]1O, the IC50 (U-87 MG [7]) is reported as over 40 µM, the IC50 (A549 [9]) is reported as 16.3 µM and the IC50 (HepG2 [10]) is reported as 8.2 µM. The IC50 (HT-29 [11]) was over 40 µM, the IC50 (SMMC-7721 [12]) was over 40 µM and the IC50 (U-251 [8]) was over 40 µM.
For CC(C)[C@@H]1CC[C@]2(C)C1=CC[C@]1(C)[C@H]3CC[C@]4(C)O[C@@H]4C(=O)[C@]3(C)[C@@H](O)C[C@H]12, the Activity (U-251 [1]) was “inactive”, the Activity (SMMC-7721 [2]) was “inactive” and the Activity (A549 [3]) was “inactive”. For the same compound, the Activity (HepG2 [4]) was “inactive”, the Activity (U-87 MG [5]) was “inactive” and the Activity (HT-29 [6]) was “inactive”.
For CC(C)[C@@H]1CC[C@]2(C)C1=CC[C@]1(C)[C@H]3CC[C@](C)(O)[C@H](O)[C@@H](O)[C@]3(C)[C@@H](O)C[C@H]12, the Activity (U-251 [1]) was “inactive”, the Activity (SMMC-7721 [2]) was “inactive” and the Activity (A549 [3]) was “inactive”. For the same compound, the Activity (HepG2 [4]) was “inactive”, the Activity (U-87 MG [5]) was “inactive” and the Activity (HT-29 [6]) was “inactive”.
With C=C1CC[C@@H]2[C@@]3(C)CC=C4[C@H](C(C)C)CC[C@@]4(C)[C@@H]3C[C@H](O)[C@@]2(C)[C@@H]2O[C@@H](c3ccc(O)cc3)O[C@@H]12 the IC50 (U-87 MG [7]) was over 40 µM, the IC50 (A549 [9]) was over 40 µM and the IC50 (HepG2 [10]) was over 40 µM. It also gave an IC50 (HT-29 [11]) of over 40 µM, an IC50 (SMMC-7721 [12]) of 25.4 µM and an IC50 (U-251 [8]) of over 40 µM.
CC(C)[C@@H]1CC[C@]2(C)C1=CC[C@]1(C)[C@H]3CC[C@@]4(C)O[C@H]([C@H]4O)[C@]3(C)[C@@H](O)C[C@H]12 was tested, and the IC50 (U-87 MG [7]) was 16.4 µM, the Activity (A549 [13]) was “inactive” and the Activity (A549 [14]) was 16.83%. For the same compound, the Activity (A549 [15]) was 83.33%, the IC50 (A549 [9]) was 6.2 µM and the Activity (A549 [16]) was 10.38%. For the same compound, the Activity (A549 [17]) was 7.51%, the Activity (A549 [18]) was “Dose-dependent effect” and the Activity (A549 [19]) was 2.17%. It also gave an Activity (A549 [20]) of 16.1%, an Activity (A549 [21]) of 3.3% and an Activity (A549 [22]) of 20.57%. The IC50 (HepG2 [10]) was 20.1 µM, the Activity (A549 [23]) was 5.06% and the IC50 (HT-29 [11]) was 14.6 µM. The IC50 (SMMC-7721 [12]) was 15.2 µM, the Activity (A549 [24]) was 3.76% and the Activity (A549 [25]) was 3.23%. It also gave an Activity (A549 [26]) of 11.62%, an Activity (A549 [27]) of 2.43% and an Activity (A549 [28]) of 85.86%. The Activity (A549 [29]) was 3.93%, the Activity (A549 [30]) was 6.05% and the Activity (A549 [31]) was “Dose-dependent effect”. It also gave an IC50 (U-251 [8]) of 12.6 µM, an Activity (A549 [32]) of 76.4% and an Activity (A549 [33]) of 3.79%.
